Values after ≈ are worked out from the molar mass of the structure shown. Read-outs that look alike come from different tables or passages of the source. Blank lines part the entries; values can stand above or below the molecule they belong to.
What was measured:
[1] = system: Plasmodium falciparum: strain W2; test: Plasmodium falciparum growth inhibition assay (EC50 determinations); type: cell-based; conditions: Plasmodium falciparum, W2; against P. falciparum, in vitro; read-out: potency against P. falciparum
Method: The growth inhibition assay for P. falciparum was conducted as described previously^29 with minor modifications. […] Following 48 hours of incubation, the cells were fixed by adding 0.1 ml of 2% formaldehyde in phosphate buffered saline, pH=7.4 (PBS). […] Parasitemias were determined from dot plots (forward scatter vs. fluorescence) using [sequence] software (Becton Dickinson). EC50 values for growth inhibition were determined from plots of percentage control parasitemia over inhibitor concentration using GraphPad Prism software.

[2] = Dissolution in oral gavage formulation; type: physicochemical; conditions: 10% DMSO, 40% of a 20% solution of 2-hydroxypropyl-cyclodextrin in water, 50% PEG400; 80, 40 and 30 mg/kg doses; sonication
Method: As such, we chose to screen the two regioisomers in a head-to-head study against P. berghei infected mice. In order to carry out this experiment, both compounds first needed to be formulated in a manner that would allow for treatment of the mice by oral gavage. […] Returning to the 3′ regioisomer, the actual doses were then successfully prepared according to the following instructions. The necessary amount of DMSO solution was removed from the vial and added to a new vial. For the 80 mg/kg dose, no additional DMSO was needed to be added to the vial. […] Upon adding the aqueous portion to the 80, 40, and 30 mg/kg doses, a white solution formed (resembled more of an emulsion then a heterogeneous solution). The vials were then placed in a bath sonicator in an attempt to redissolve the material. […] However, even after storing the material at −20° C., the compound was not observed to crash out of the formulation again. For the second attempt at preparing the necessary formulation for the actual OZ439, the material was partitioned such that when the dilutions were performed, the highest concentration that would be prepared from the stock solution would be the 10 mg/kg doses. As such, the 80, 40, and 30 mg/kg doses were all prepared directly by partitioning the requisite amounts into separate vials and then adding the necessary amounts of the formulation to reach the desired concentration. […]

[3] = Dissolution in DMSO (stock solution); type: physicochemical
Method: The way in which the formulations were prepared involved preparing a stock solution of the compound in DMSO, and then performing dilutions from this stock such that the requisite final concentration was obtained after the addition of all the necessary formulation components. Practically speaking, this was accomplished by partitioning a portion of each compound into separate 4 mL vials, and then placing these vials on the lyophilizer to ensure the compounds were completely dry. This led to a vial containing 49.5 mg of the 3′ OZ439 regioisomer, while the other held 51.0 mg of OZ439. […] This entailed adding 309.4 μL of DMSO to the vial with the 3′ OZ439 regioisomer, whereas 318.8 μL of DMSO was added to the vial containing actual OZ439. In the past, an issue has not arisen when doing this. However, this time, a major problem presented itself. The problem was not with the newly developed 3′ regioisomer of OZ439, but with OZ439 itself. After addition of DMSO to the vials, the majority of the 3′ regioisomer dissolved, whereas none of the actual OZ439 did. In an attempt to assist with dissolving the material, the two vials were then placed a water bath set to 42° C. […] The vial was then placed in a bath sonicator for 60 minutes, ultimately to no avail as […] dissolution of the material. […] At this point, the vial was then placed on the Hi-Vac to remove the DMSO. Once dry, the material was partitioned again in an attempt to get the material to dissolve at a lower concentration.
For the second attempt at preparing the necessary formulation for the actual OZ439, the material was partitioned such that when the dilutions were performed, the highest concentration that would be prepared from the stock solution would be the 10 mg/kg doses. As such, the 80, 40, and 30 mg/kg doses were all prepared directly by partitioning the requisite amounts into separate vials and then adding the necessary amounts of the formulation to reach the desired concentration. For the vial that was employed in aliquoting from to prepare the other concentrations, it contained 15.5 mg of OZ439. DMSO (775 μL) was then added to this vial, to yield a final concentration of 20 mg/mL (55 mM). […] Only after allowing the vial to warm in a 55° C. water bath for 30 minutes did the material finally dissolve. At this point, the material was brought back to the bench to aliquot the material en route to preparing the remaining doses. However, upon being removed from the bath, the compound began to crash out as it cooled to room temperature. For this reason, the vial was heated with a heat gun for about 10-15 seconds to get the material to dissolve fully once again. […]

[4] = system: K13 revertant strain bearing the wild type K13 allele; conditions: pulsed exposure; cited from earlier work
[5] = Mouse liver microsome assay (half-life, intrinsic clearance)
From the text: A second hypothesis regarding trans-R^A substitution (R^A in Scheme 1) was that the resulting de-symmetrized molecular topology would impact the vivo PK/PD properties of these analogs. […] To explore possible metabolic differences, we evaluated selected analogs with mouse liver microsomes and derived intrinsic clearance (CLint) values (Table 1).

[6] = human, in vivo; cited from earlier work
[7] = system: clinical K13-mutant strain; conditions: pulsed exposure; cited from earlier work
[8] = Kinetic solubility in PBS; type: physicochemical; conditions: kinetic solubility in PBS (pH = 7.4), final DMSO 5%, average of three determinations
Plasmodium berghei = Plasmodium berghei mouse malaria model (Peters test, cures at 30 days); type: in vivo; conditions: po, 720 h, oral gavage, read-out: Mice Cured (%)
From the text: The suppressive 4-day “Peters test” ^27 involving P. berghei infected mice provides a convenient and cost effective means to assess the overall in vivo performance of pre-clinical antimalarials. […] Mice were followed for 30 days and judged to have been cured of the infection based on the lack of detectable parasitemia at the end of the study.
Female Swiss Webster Mice (average of 20 g body weight) were infected intraperitoneally with 10^6 Plasmodium berghei-infected erythrocytes collected from a previously infected mouse. […] There were five mice in each test arm. Infections were monitored by daily microscopic evaluation of Giemsa-stained blood smears starting on day seven. Parasitemia were determined by counting the number of infected and uninfected erythrocytes. Body weight was measured over the course of the treatment. […] Animal survival and morbidity were closely monitored for up to 30 days post-infection when the experiment was terminated. In some cases survival is expressed as a PD100 or PD50, the dose that produces respectively 100% or 50% cures in treated animals at 30 days post infection.

PC-3 xenograft = test: PET imaging of PC-3 xenograft mouse; type: in vivo; conditions: tail vein injection
From the text: Compounds 1 and specific examples B9[^18F] and B20[^18F] above are PET imaging reagent with applications in cancer, infectious disease, and inflammation. […] Additional, more quantitative, biodistribution data (e.g., biodistribution data for probes B9 and B20) is included in FIGS. 5-8. […] The imaging reagents above provides a new paradigm for imaging diverse cancer types based on metabolic changes in iron metabolism in tumors and other aspects of tumor biology (hypoxia, necrosis, macrophage infiltration). Imaging primary tumors and metastases and other therapeutic conditions involving aberrant production of labile Fe(II) such as inflammation and infection.

[9] = 160 mg/mL (341 mM) in DMSO, water bath 42° C., then 55° C. and sonication for OZ439

EC50 [1]: 0.0195 ± 0.0016 µM | dissolution in formulation [2]: completely dissolved | dissolution in DMSO ([3]; 160 mg/mL (341 mM) in DMSO, water bath 42° C., then 55° C. and sonication for OZ439, listed as 3′ regioisomer of OZ439): completely dissolved
SMILES: c1cc([C@@H]2CCC[C@]3(C2)OOC2(O3)C3CC4CC(C3)CC2C4)ccc1OCCN1CCOCC1 (stereo in doubt) [A5, 4-(2-(4-(dispiro[adamantane-2,3′-[1,2,4]trioxolane-5′,1″-cyclohexan]-3″-yl)phenoxy)ethyl)morpholine]
dissolution in DMSO [3, 9]: dissolved much more rapidly in DMSO than did OZ439

SMILES: CC(C)(N)CNC(=O)C[C@H]1CC[C@]2(CC1)OO[C@]1(O2)C2CC3CC(C2)CC1C3 [2a, arterolane, reference compound]
time to reduce early ring viability by 50% (t50) [4]: ~1 h | T1/2 ([5]; half-life when incubated with mouse liver microsomes): 2.13 h | T1/2 (min) No NADPH ([5]; mouse liver microsomes, no NADPH): stable | CLint ([5]; mouse, microsomes): 5.4 μL/min/mg of protein | half-life [6]: 2 to 3 h | time to reduce early ring viability by 50% (t50) [7]: ~3 h | Solubility [8]: 433 µM (≈ 170 µg/mL) | responders at 13.6 mg/kg/day (Plasmodium berghei; Table 2, tosylate salt, 13.6 mg/kg/day, once a day for four days, no parasitemia at 30 days): 100% | responders at 1 mg/kg/day (Plasmodium berghei; Table 3, free base, 1 mg/kg/day, four daily doses): 0% | responders at 4 mg/kg/day (Plasmodium berghei; Table 3, free base, 4 mg/kg/day, four daily doses): 80% | responders at 6 mg/kg/day (Plasmodium berghei; Table 3, free base, 6 mg/kg/day, four daily doses): 100% | responders at 10 mg/kg/day (Plasmodium berghei; Table 3, free base, 10 mg/kg/day, four daily doses): 100% | responders at 4 mg/kg/day (Plasmodium berghei; Table 4, 4 mg/kg/day, once a day for four days): 20% | responders at 6 mg/kg/day (Plasmodium berghei; Table 4, 6 mg/kg/day, once a day for four days): 80%

PET distribution (PC-3 xenograft): accumulation in the small intestine
SMILES: O=C(NCCCNC(=O)C12CC3CC(C1)[C@]1(OO[C@]4(CC[C@@H](c5ccc(OCCN6CCOCC6)cc5)CC4)O1)C(C3)C2)c1ccc(F)cc1 [B9, N-(3-(4-fluorobenzamido)propyl)-4″-(4-(2-morpholinoethoxy)phenyl)dispiro[adamantane-2,3′-[1,2,4]trioxolane-5′,1″-cyclohexane]-5-carboxamide]

SMILES: c1cc([C@H]2CC[C@]3(CC2)OO[C@]2(O3)C3CC4CC(C3)CC2C4)ccc1OCCN1CCOCC1 [OZ439, artefenomel, reference compound]
EC50 [1]: 0.0079 ± 0.0002 µM | dissolution in formulation [2]: unsuccessful in getting the material to dissolve | dissolution in DMSO ([3]; 20 mg/mL (55 mM) in DMSO): did not readily dissolve | dissolution in DMSO [3, 9]: did not dissolve
